Assay results reported in patent US9701556B1, “Compositions, methods, and systems for reducing contamination” (priority 2004, dated 2017).
Where “and” joins values, the source holds several entries; their conditions need not be identical. Identical values can stand only once.

Assays:
Fecal Coliform = experiment: Disinfection of wastewater, fecal coliform count; assay type: cell-based; conditions: 50 microliters 35% H2O2 (with or without 50 microliters Fe-GLC), after twenty minutes, control 2200
Description: The samples were divided equally into three clean 500 milliliter sample containers from the single sample taken. The first sample served as a control and was set aside. […] Each sample was capped and shaken briefly to mix the contents. After twenty minutes, sub-samples were taken from each vessel and pored into fecal coliform sample containers for analysis at the Hampton Roads Sanitary District lab.

[1] = Treatment of contaminated groundwater, BTEX SW 846 8260; conditions: 250 ml groundwater, 1 ml 35% hydrogen peroxide (with or without 1 ml Fe-GLC); untreated 159 ppb; ND = non detectible
[2] = as above; conditions: 250 ml groundwater, 1 ml 35% hydrogen peroxide (with or without 1 ml Fe-GLC); untreated 34 ppb; ND = non detectible
[3] = as above; conditions: 250 ml groundwater, 1 ml 35% hydrogen peroxide (with or without 1 ml Fe-GLC); untreated 171 ppb; ND = non detectible
[4] = Treatment of sulfides in municipal wastewater with ferric chelants and hydrogen peroxide
Protocol: The pH was then raised to 7 using sodium hydroxide. Precipitation of iron oxides and/or hydroxides at this pH offered assurance of complete chelation of still soluble iron after 24 hours.
Total sulfides were tested for using Standard Methods 4500-S^2− D with a Hach Chemical Company (of Loveland, Colo.) DR 2000 Spectrophotometer and reagents from Hach specific for this particular test. To keep total sulfides within the range of the test, samples were diluted with distilled water prior to conducting the test as per Hach instructions.
Tests for total sulfide were conducted after 5, 15, and 30 minutes of contact time on each of the seven liter test jars.

[5] = Treatment of contaminated groundwater, BTEX SW 846 8260; conditions: 250 ml groundwater, 1 ml 35% hydrogen peroxide (with or without 1 ml Fe-GLC); untreated 27 ppb
[6] = Comparative treatment of 2,4-D in water, GC analysis; conditions: after four hours
Protocol: A solution containing 1.5 L of distilled water, approximately 0.2 g of sodium bicarbonate, and a small amount of sodium salt of 2,4-D were prepared with magnetic stirring at room temperature in a 2.5 L flask. The dissolved sodium bicarbonate increased the alkalinity of the water somewhat, causing the water to mimic a natural water source. Two hundred fifty milliliters of this solution was distributed into three 500 mL Erlenmeyer flasks.
The flasks were then covered with parafilm and swirled to facilitate mixing of the solution.

[7] = Treatment of contaminated groundwater, BTEX SW 846 8260; conditions: 250 ml groundwater, 1 ml 35% hydrogen peroxide (with or without 1 ml Fe-GLC); untreated 56 ppb; ND = non detectible
heterotrophic bacteria = experiment: Disinfection of wastewater with chelated iron compounds, total heterotrophic bacteria counts; assay type: cell-based; conditions: compared with hydrogen peroxide alone
Protocol: A 10 gallon sample of wastewater from the Massaponax Wastewater Plant was collected and allowed to sit undisturbed for thirty minutes. The clarified supernatant was then pored off of the top of the settled solids within the sample. The supernatant was then mixed and four samples were collected to determine untreated heterotrophic bacteria counts. […] were dissolved in distilled water at 0.4334M. Ferric chloride was added in amounts to achieve saturation of chelant sites on the respective chelants. […] Twenty individual liter samples of supernatant were then decanted from the well-mixed wastewater sample for testing. Four chelated iron products with peroxide were tested at two test concentrations and compared to samples receiving peroxide only and iron chelate only. […] Individual samples were dosed with the respective additives, mixed with a magnetic stir bar and allowed to react for 30 minutes. Samples were then decanted to sterile sample containers containing sodium thiosulfate to stop the oxidation process and preserve the sample. Samples were then placed in a refrigerator until all samples were finished. Samples were packaged in a standard cooler with ice packs and sent via overnite delivery to ProChem Labs in Lynchburg, Va. for analysis for total heterotrophic bacteria counts.

OO [H2O2 Only, hydrogen peroxide]
Fecal Coliform (Fecal Coliform): 53 cfu/100 mL
Fecal Coliform (Fecal Coliform; listed as hydrogen peroxide): Fifty three
Xylenes [1]: 67.0 ppb
Ethylbenzene [2]: 13.0 ppb
Toluene [3]: 55.7 ppb
sulfide reduction after 15 minutes ([4]; 2.5:1.0 peroxide to sulfide, 105.8 ppm hydrogen peroxide, 20 ppm chelant where added, peroxide alone averaged): 52%
sulfide treatment after 15 minutes ([4]; 37.8 ppm hydrogen peroxide, 12 ppm chelant where added): 42.9%
Percentage of Sulfide Treated, Dose 3 38.7 ppm H2O2 Only ([4]; after 30 minutes, 1.5:1.0 ratio of peroxide to sulfide): 55.5 and 59.0 and 46.5 and 56.3 and 57.0 and 54.7
Percentage of Sulfide Treated, Dose 3 105.8 ppm H2O2 Only ([4]; after 30 minutes, 2.5:1.0 ratio of peroxide to sulfide): 69.0 and 69.5 and 67.8 and 66.4 and 44.4 and 69.3 and 70.2
MtBE [5]: 15.7 ppb
2,4-D concentration ([6]; 250 mL, 200 microliters 50% hydrogen peroxide (with or without 200 microliters Fe-GLC), untreated 130 ppb): 230 ppb
effect on 2,4-D, in words [6]: had no affect
Benzene [7]: 15.1 ppb
disinfection effect, in words (heterotrophic bacteria): good disinfectant
